System: Bovine cardiac myofibrils
Assay: In vitro model of dose-dependent myofibril ATPase modulation (AC1.4, pyruvate kinase/lactate dehydrogenase-coupled ATPase assay at pCa25)
Format: biochemical
Settings: concentration at which ATPase activity was 1.4-fold higher than the bottom of the dose curve, mean of a minimum of two independent tests
Outline: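 Coupled-enzyme ATPase on bovine heart myofibrils, 1 mM ATP, EGTA/CaCl2 buffered; 340 nm readout.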

| SMILES | AC1.4 |
| --- | --- |
| O=C(N[C@@H](c1cc(F)c(Cl)cc1F)C1COC1)[C@H]1C[C@H]2C[C@H]2N1C(=O)c1cc(C(F)(F)F)ncn1 [Example 487, (1R,3R,5R)-N-((R)-(4-chloro-2,5-difluorophenyl)(3-oxetanyl)methyl)-2-((6-(trifluoromethyl)-4-pyrimidinyl)carbonyl)-2-azabicyclo[3.1.0]hexane-3-carboxamide] | 2.218 µM |
| C[C@@H](NC(=O)[C@H]1CCCN1C(=O)c1cccc(S(=O)(=O)N(C)C)c1)c1ccc(C(F)(F)F)cc1 [Example 436, 1-(3-(dimethylsulfamoyl)benzoyl)-N-((1R)-1-(4-(trifluoromethyl)phenyl)ethyl)-D-prolinamide] | 1.7 µM |
| CC[C@@H](NC(=O)[C@H]1CCCN1C(=O)c1cccc(S(=O)(=O)N2CC(C#N)C2)c1)c1cc(F)cc(F)c1 [Example 124, 1-(3-((3-cyano-1-azetidinyl)sulfonyl)benzoyl)-N-((1R)-1-(3,5-difluorophenyl)propyl)-D-prolinamide] | 0.1998 µM |
| NS(=O)(=O)c1cccc(C(=O)N2[C@@H](C(=O)N[C@@H](c3cc(F)c(Cl)cc3F)C3CC3)C[C@H]3C[C@H]32)c1 [Example 139, (1R,3R,5R)-N-((R)-(4-chloro-2,5-difluorophenyl)(cyclopropyl)methyl)-2-(3-sulfamoylbenzoyl)-2-azabicyclo[3.1.0]hexane-3-carboxamide] | 0.232 µM |
| O=C(N[C@@H](c1cc(F)c(C(F)(F)F)cc1F)C1CC1)[C@H]1C[C@H]2C[C@H]2N1C(=O)c1cccc(C(F)(F)F)n1 [Example 615, (1R,3R,5R)-N-((R)-cyclopropyl(2,5-difluoro-4-(trifluoromethyl)phenyl)methyl)-2-((6-(trifluoromethyl)-2-pyridinyl)carbonyl)-2-azabicyclo[3.1.0]hexane-3-carboxamide] | 3.8905 µM |
| CC(C)(C)Nc1ccc(S(C)(=O)=O)cc1C(=O)N1[C@@H](C(=O)N[C@@H](c2ccc(C(F)(F)F)cc2F)C2CC2)C[C@H]2C[C@H]21 [Example 101, (1R,3R,5R)-N-((R)-cyclopropyl(2-fluoro-4-(trifluoromethyl)phenyl)methyl)-2-(2-((2-methyl-2-propanyl)amino)-5-(methylsulfonyl)benzoyl)-2-azabicyclo[3.1.0]hexane-3-carboxamide] | 0.1559 µM |

The next lines start with the values.

| AC1.4 | SMILES |
| --- | --- |
| 3.9515 µM | COc1cc2c(cc1F)CCC2NC(=O)[C@H]1CCCN1C(=O)[C@H]1CCCN(S(=O)(=O)N2CC(C#N)C2)C1 (stereo partly drawn) [Example 622, (2R)-1-((S)-1-((3-cyanoazetidin-1-yl)sulfonyl)piperidine-3-carbonyl)-N-(5-fluoro-6-methoxy-2,3-dihydro-1H-inden-1-yl)pyrrolidine-2-carboxamide] |
| 5.379 µM | COCC(=O)NC1CN(S(=O)(=O)N2CCC[C@H](C(=O)N3CCC[C@@H]3C(=O)NCc3ccc(C(F)(F)F)cc3)C2)C1 [Example 692, 1-(((3S)-1-((3-((methoxyacetyl)amino)-1-azetidinyl)sulfonyl)-3-piperidinyl)carbonyl)-N-(4-(trifluoromethyl)benzyl)-D-prolinamide] |
| 7.6347 µM | N#CC1CN(S(=O)(=O)c2cccc(C(=O)N3CCC[C@@H]3C(=O)NC3CC(C(F)(F)F)C3)c2)C1 (stereo partly drawn) [Example 759, 1-((3-((3-cyano-1-azetidinyl)sulfonyl)phenyl)carbonyl)-N-(cis-3-(trifluoromethyl)cyclobutyl)-D-prolinamide,1-((3-((3-cyano-1-azetidinyl)sulfonyl)phenyl)carbonyl)-N-(trans-3-(trifluoromethyl)cyclobutyl)-D-prolinamide] |
| 2.035 µM | O=C1NCCCCC1NS(=O)(=O)N1CCC[C@H](C(=O)N2CCC[C@@H]2C(=O)NCc2ccc(C(F)(F)F)cc2)C1 (stereo partly drawn) [Example 473, (2R)-1-((3S)-1-(N-(2-oxoazepan-3-yl)sulfamoyl)piperidine-3-carbonyl)-N-(4-(trifluoromethyl)benzyl)pyrrolidine-2-carboxamide] |

Source: patent publication US11780826B2 (Amgen Inc., priority 2017, dated 2023)
